Assay: Metabolic conversions and bioavailability of pyridoxamine, plasma B6 vitamers by HPLC
Type: in vivo, rat
Conditions: 25 mg/kg/day pyridoxamine in drinking water, after 48 hours; n=4
Method: In addition to the glycated albumin studies, we carried out an investigation of the bioavailability of pyridoxamine when introduced through drinking water, and its possible redistribution into the vitamin B6 pool. Determination of the common B6 vitamers in plasma was carried out by HPLC methods as described below. Rats (n=4) were kept in standard cages as in the other experiments and were given pyridoxamine at 25 mg/kg/day for 48 hours, following which blood samples were withdrawn intra-cardially for serum analysis of the B6 vitamers. The concentrations were compared to endogenous B6 vitamer levels of control rats.
The procedures of Sampson and O° Connor (Nutrition Res. 9:259-272 (1989)) and Sharma and Dakshinamurti (Sampson and O° Connor J Nutr 119:1940-8, (1989) Sharma and Dakshinamurti, J Chromatogr 578:45-51, (1992)) were followed, using a Shimadzu HPLC with RF-551 fluorescence monitor. Excitation was at 328 nm and emission was followed at 393 nm. An Ultremex C18 guard column (30×4.6 mm, 5 micron particle size) (Phenomenex) preceded an Ultremex C18 ion-pair column (octadecylsilane, 150×4.6 mm, 3 micron particle size) (Phenomenex). Solvent A contained 0.033 M phosphoric acid and 0.008 M 1-octanesulfonic acid, adjusted to pH 2.2 with 6 N KOH. Solvent B contained 0.033 M phsophoric acid and 10% (v/v) 2-propanol, adjusted to pH 7.5 with 6 N KOH. […]

- elevation of plasma pyridoxamine, steady state to endogenous level: approximately 300 fold
SMILES: Cc1ncc(CO)c(CN)c1O [pyridoxamine]

Reference: US6716858B1, “Methods for inhibiting diabetic complications” (Kansas University Medical Center, priority 1995, dated 2004)
